The text below walks through data of PMC7079008, “Compactness of Protein Folds Alters Disulfide‐Bond Reducibility by Three Orders of Magnitude: A Comprehensive Kinetic Case Study on the Reduction of Differently Sized Tryptophan Cage Model Proteins” (Chembiochem, 2019).

This data set in a line: Complete redox cycle after DTT reduction: reoxidation by dissolved O2 and precipitation, 1H NMR. Type of data set: physicochemical. The following applies: twofold excess of DTT, pH 7, 15 °C, sealed NMR tube. Here is the method: Incomplete conversion, despite the presence of a large excess of the RA, provided evidence for the reoxidation of the reduced SS bond of the studied model systems. To study this process in detail, the in situ reoxidation of the DTT‐reduced protein samples at […] in sealed NMR tubes (pH 7, 15 °C, twofold excess of DTT) was monitored for several weeks.
Figure 8 The 50‐membered structure ensembles of A) E11_SS⇄E11_2SH and B) E5_SS⇄E5_2SH. The fold of E11_2SH is more compact than that of E5_2SH, which has more “open” conformers, in which the Cys residues are far from each other. This allows intermolecular, rather than intramolecular, reoxidation. The dissolved oxidized and reduced protein concentrations of C) E11_SS⇄E11_2 SH and D) E5_SS⇄E5_2SH (oxidized: blue; reduced: green) as a function of time. […] E) Estimated parameters of the complete redox cycles. […] Figure S11 contains all data for parameter estimation of E11_SS, E5_SS, and E2_SS. […]
Reoxidation can take place both intra‐ and intermolecularly. […] According to our semiquantitative analysis based on the recorded ^1H NMR spectra, the integral changes of the Trp Hϵ1 resonances both in the oxidized and reduced forms of the protein during reduction with DTT show a decrease in concentration over the observed period of redox time for both E2_SS and E5_SS. […]

Each structure is given as a SMILES string. Where a SMILES comes first, the peptide text is derived from it. Bridges are numbered along the chain shown (N, C = ends).

As to `CC[C@H](C)[C@@H]1NC(=O)[C@H](Cc2ccc(O)cc2)NC(=O)[C@H](CC(C)C)NC(=O)[C@H](CCCNC(=N)N)NC(=O)[C@H](C(C)C)NC(=O)[C@@H](NC(=O)[C@H](CCC(=O)O)NC(=O)[C@H](CCC(=O)O)NC(=O)[C@@H](N)CCC(=O)O)CSSC[C@@H](C(=O)O)NC(=O)[C@@H]2CCCN2C(=O)[C@@H]2CCCN2C(=O)[C@@H]2CCCN2C(=O)[C@H](CCCNC(=N)N)NC(=O)CNC(=O)[C@H](CO)NC(=O)[C@H](CO)NC(=O)[C@@H]2CCCN2C(=O)CNC(=O)CNC(=O)[C@H](CC(=O)O)NC(=O)[C@H](CCCCN)NC(=O)[C@H](CC(C)C)NC(=O)[C@H](Cc2c[nH]c3ccccc23)NC(=O)[C@H](CCC(N)=O)NC1=O` [E5_SS] (H-EEECVRLYIQWLKDGGPSSGRPPPC-OH; disulfide 4-25), the “decrease of the initial dissolved protein concentration at the end of a complete redox cycle” value turned out to be 68%.
With `CC[C@H](C)[C@@H]1NC(=O)[C@H](Cc2ccc(O)cc2)NC(=O)[C@H](CC(C)C)NC(=O)[C@H](CCCNC(=N)N)NC(=O)[C@H](C(C)C)NC(=O)[C@@H](NC(=O)[C@H](CCC(=O)O)NC(=O)[C@H](CCC(=O)O)NC(=O)[C@H](CCC(=O)O)NC(=O)[C@H](CCSC)NC(=O)[C@H](CCC(N)=O)NC(=O)[C@H](CCCCN)NC(=O)[C@H](CO)NC(=O)[C@H](CC(C)C)NC(=O)[C@@H](N)CC(=O)O)CSSC[C@@H](C(=O)O)NC(=O)[C@@H]2CCCN2C(=O)[C@@H]2CCCN2C(=O)[C@@H]2CCCN2C(=O)[C@H](CCCNC(=N)N)NC(=O)CNC(=O)[C@H](CO)NC(=O)[C@H](CO)NC(=O)[C@@H]2CCCN2C(=O)CNC(=O)CNC(=O)[C@H](CC(=O)O)NC(=O)[C@H](CCCCN)NC(=O)[C@H](CC(C)C)NC(=O)[C@H](Cc2c[nH]c3ccccc23)NC(=O)[C@H](CCC(N)=O)NC1=O` [E11_SS] (H-DLSKQMEEECVRLYIQWLKDGGPSSGRPPPC-OH; disulfide 10-31), the “decrease of the initial dissolved protein concentration at the end of a complete redox cycle” value is listed as “remained the same”.
